# Test results reported in patent publication EP0153803A2, “Triazole antifungal agents” (Pfizer Limited, priority 1984, dated 1985).
# Test system: Candida albicans
# Test: in vivo protection of mice inoculated with Candida albicans (PD50)
# Conditions: Candida albicans, 48 h, vs. Candida albicans in mice; dose giving 50% protection against lethal effect of the infection, 48 hours observation; route not given
# Description: The in vivo evaluation of the compounds can be carried out at a series of dose levels by intraperitoneal or intravenous injection or by oral administration, to mice which are inoculated with a strain of Candida albicans. Activity is based on the survival of a treated group of mice after the death of an untreated group of mice following 48 hours observation.- The dose level at which the compound provides 50% protection (PD50) against the lethal effect of the infection is noted. Using the test method described in the text, the following PD50 values were obtained vs. Candida albicans in mice:-
row,SMILES,ED50 [mg/kg]
1,CC(C)(n1cncn1)C(O)(c1ccc(Cl)cc1)c1ccc(F)cc1F (racemic) [Example 4],2.3
2,CC(C)(n1cncn1)C(O)(c1ccc(F)cc1)c1ccc(F)cc1F (racemic) [Example 5],2.2
3,OC(c1ccc(F)cc1F)(c1ccc(F)cc1F)C(F)n1cncn1 (racemic) [Example 11],< 1
4,"CC(n1cncn1)C(O)(c1ccc(F)cc1)c1ccc(F)cc1F (single isomer, unassigned) [Example 2]",< 1
5,"OC(c1ccc(F)cc1)(c1ccc(Cl)cc1Cl)C(F)n1cncn1 (single isomer, unassigned) [Example 9 (diastereomer I)]",0.3
6,"OC(c1ccc(Cl)cc1)(c1ccc(Cl)cc1Cl)C(F)n1cncn1 (single isomer, unassigned) [Example 10]",3.2
7,"CC(F)(n1cncn1)C(O)(c1ccc(Cl)cc1)c1ccc(F)cc1F (stereo not drawn) [Example 1, 1-(4-Chlorophenyl)-1-(2,4-difluorophenyl)-2-fluoro-2-(1H-3,2,4-triazol-1-yl)propan-1-ol]",0.95
8,CC(C)(n1cncn1)C(O)(c1ccc(Cl)cc1)c1ccc(Cl)cc1 [Example 3],< 1
9,"CC(C)(n1cncn1)C(O)(c1ccc(F)cc1)c1ccc(F)cc1 [Example 6, 1,1-Bis(4-fluorophenyl)-2-methyl-2-(1H-1,2,4-triazol-1-yl)propan-l-ol]",1.6
10,"OC(c1ccc(F)cc1)(c1ccc(F)cc1)C(F)n1cncn1 (stereo not drawn) [Example 8, 2-Fluoro-1,1-di-(4-fluorophenyl)-2-(1,2,4-triazol-1-yl)ethanol]",0.3

# Same assay, conditions: vs. Candida albicans in mice; dose giving 50% protection against lethal effect of the infection, 48 hours observation; route not given; 2880 min
row,SMILES,PD50 [mg/kg]
1,"OC(c1ccc(Cl)cc1)(c1ccc(F)cc1F)C(F)n1cncn1 (single isomer, unassigned) [Example 7 (diastereomer I), 1-(4-Chloroghenyl)-1-(2,4-difiuorophenyl)-2-fiuoro-2-(1H-1,2,4-triazol-l-yl)-ethanol]",1.6
2,"OC(c1ccc(Cl)cc1)(c1ccc(F)cc1F)C(F)n1cncn1 (single isomer, unassigned) [Example 7 (diastereomer II), 1-(4-Chloroghenyl)-1-(2,4-difiuorophenyl)-2-fiuoro-2-(1H-1,2,4-triazol-l-yl)-ethanol]",0.3
3,"OC(c1ccc(F)cc1)(c1ccc(Cl)cc1Cl)C(F)n1cncn1 (single isomer, unassigned) [Example 9 (diastereomer II)]",0.5
4,"OC(c1ccc(F)cc1)(c1ccc(F)cc1)C(F)n1cncn1 (single isomer, unassigned) [Example 12(+)]",0.75
5,"OC(c1ccc(F)cc1)(c1ccc(F)cc1)C(F)n1cncn1 (single isomer, unassigned) [Example 12(-)]",0.2
